Laboratory results published in the supplement of paper PMC10331698.
± gives the standard deviation of the averaged measurements.

Columns and labels:
Test in all cases: level (log10 ratio to DMSO vehicle control); higher = higher biomarker level / cell amount than vehicle control
[1] = compound: OCCC(F)(F)C(F)(F)C(F)(F)C(F)(F)F [4:2 Fluorotelomer alcohol] (in DMSO)
Description: (§1)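 BioMAP Diversity Plus panel of 12 human primary cell co-culture systems (3C, 4H, LPS, SAg, BT, BF4T, BE3C, CASM3C, HDF3CGF, KF3CT, MyoF, Mphg). Compounds were added 1 h before stimulation and left for 24 h (MyoF 48 h; BT 72 h for soluble read-outs or 6 d for IgG). Biomarkers were read by ELISA, cytotoxicity by SRB, PBMC viability and proliferation by Alamar Blue. Each well value was divided by the mean of 8 DMSO control wells on the same plate and log10 transformed; duplicate blinded samples were tested at 4 concentrations.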

[2] = compound: O=C(O)C(F)(OC(F)(F)C(F)(F)C(F)(F)F)C(F)(F)F [Ammonium perfluoro-2-methyl-3-oxahexanoate] (in Water)
Description: as §1

[3] = compound: OCC(F)(F)C(F)(F)C(F)(F)C(F)(F)C(F)(F)C(F)(F)CO [1H,1H,8H,8H-Perfluorooctane-1,8-diol] (in DMSO)
Description: as §1

[4] = compound: O=C(O)C(F)(F)OC(F)(F)C(F)(F)OC(F)(F)C(F)(F)OC(F)(F)C(F)(F)C(F)(F)C(F)(F)F [Perfluoro-3,6,9-trioxatridecanoic acid] (in DMSO); settings: 6700 nM
Description: as §1

[5] = compound: O=C(O)C(F)(OC(F)(F)C(F)(OC(F)(F)C(F)(OC(F)(F)C(F)(F)C(F)(F)F)C(F)(F)F)C(F)(F)F)C(F)(F)F [Perfluoro-(2,5,8-trimethyl-3,6,9-trioxadodecanoic)acid] (in DMSO)
Description: as §1

[6] = compound: O=C(O)C(F)(F)C(F)(F)C(F)(F)C(F)(F)C(F)(F)C(F)(F)C(F)(F)C(F)(F)C(F)(F)C(F)(F)F [Perfluoroundecanoic acid] (in DMSO); settings: 6700 nM
Description: as §1

[7] = compound: O=C(O)C(F)(F)C(F)(F)C(F)(F)C(F)(F)C(F)(F)C(F)(F)C(F)(F)C(F)(F)F [Perfluorononanoic acid] (in DMSO)
Description: as §1

[8] = compound: C[C@@H]1C[C@H]2[C@@H]3CCC4=CC(=O)C=C[C@]4(C)[C@@]3(F)[C@@H](O)C[C@]2(C)[C@@]1(O)C(=O)COP(=O)(O)O [Dexamethasone sodium phosphate] (in DMSO)
Description: as §1

Test System	level (log10) ([1]; 6700 nM)	level (log10) ([1]; 20000 nM)	level (log10) ([1]; 60000 nM)	level (log10) ([2]; 6700 nM)	level (log10) ([2]; 20000 nM)	level (log10) ([2]; 60000 nM)	level (log10) ([3]; 6700 nM)	level (log10) ([3]; 20000 nM)	level (log10) ([3]; 60000 nM)	level (log10) [4]	level (log10) ([5]; 1100 nM)	level (log10) ([5]; 3300 nM)	level (log10) ([5]; 10000 nM)	level (log10) [6]	level (log10) ([7]; 6700 nM)	level (log10) ([7]; 20000 nM)	level (log10) ([8]; 1500 nM)	level (log10) ([8]; 4400 nM)	level (log10) ([8]; 13000 nM)	level (log10) ([8]; 40000 nM)
4H:CCL2/MCP-1	-0.101 ± 0.0071	-0.0325 ± 0.0064	0.0115 ± 0.025	0.0005 ± 0.029	0.007 ± 0.037	0.008 ± 0.051	-0.058 ± 0.04	-0.0485 ± 0.018	-0.012 ± 0.02	-0.029 ± 0.0099	0.0005 ± 0.012	-0.017 ± 0.0099	0.0205 ± 0.021	-0.024 ± 0.023	-0.074 ± 0.013	-0.0405 ± 0.005	-0.0075 ± 0.018	0.005 ± 0.033	0.017 ± 0.041	0.043 ± 0.025
4H:CCL26/Eotaxin-3	-0.018 ± 0.016	-0.0045 ± 0.0035	-0.0015 ± 0.0035	-0.0615 ± 0.0021	-0.064 ± 0.0014	-0.118 ± 0.012	0.0095 ± 0.019	0.0125 ± 0.019	0.0125 ± 0.0021	-0.007 ± 0.038	0.0005 ± 0.0078	-0.0095 ± 0.023	-0.0075 ± 0.005	0.016 ± 0.03	-0.008 ± 0.0071	-0.03 ± 0.018	-0.0175 ± 0.0035	-0.0315 ± 0.0035	-0.0285 ± 0.029	-0.052 ± 0.078
4H:CD62P/P-selectin	-0.0235 ± 0.037	-0.02 ± 0.0071	0.025 ± 0.023	-0.0475 ± 0.012	-0.0065 ± 0.03	-0.054 ± 0.048	-0.039 ± 0.0028	0.004 ± 0.011	0.0355 ± 0.0021	0.033 ± 0.023	-0.002 ± 0.069	0.0295 ± 0.0064	-0.0445 ± 0.026	0.064 ± 0.0028	0.015 ± 0.0099	0.0605 ± 0.011	-0.0355 ± 0.037	-0.038 ± 0.0042	-0.022 ± 0.011	-0.033 ± 0.047
4H:CD87/uPAR	-0.026 ± 0.011	-0.0105 ± 0.023	-0.005 ± 0.0028	-0.033 ± 0.027	-0.024 ± 0.033	-0.06 ± 0.0014	-0.013 ± 0.0014	-0.0065 ± 0.0021	-0.03 ± 0.017	0.0145 ± 0.03	0.001 ± 0.027	-0.0025 ± 0.011	0.0075 ± 0.0092	-0.008 ± 0.025	-0.0245 ± 0.026	-0.012 ± 0.0071	-0.0055 ± 0.0021	-0.0195 ± 0.022	-0.024 ± 0.086	-0.0375 ± 0.094
4H:CD106/VCAM-1	-0.025 ± 0.023	-0.0105 ± 0.013	0.0085 ± 0.0078	-0.0455 ± 0.005	-0.0365 ± 0.018	-0.037 ± 0.021	-0.0295 ± 0.005	0.015 ± 0.023	-0.007 ± 0.0085	-0.023 ± 0.0085	0.019 ± 0.013	0.027 ± 0.014	0.049 ± 0.0099	-0.03 ± 0.0057	-0.0245 ± 0.032	-0.029 ± 0.0071	0.004 ± 0.02	-0.011 ± 0.0042	-0.012 ± 0.0028	-0.005 ± 0.011
4H:SRB	-0.0005 ± 0.012	-0.004 ± 0.0014	0.0135 ± 0.015	-0.0075 ± 0.012	-0.018 ± 0.014	-0.0115 ± 0.005	0.0105 ± 0.0021	0.006 ± 0.0071	-0.01 ± 0.025	0.0035 ± 0.0092	0.0045 ± 0.0064	0 ± 0.0028	0.009 ± 0.0057	-0.0105 ± 0.011	0.002 ± 0.0014	-0.008 ± 0.0042	0.001 ± 0.011	-0.0135 ± 0.005	0.005 ± 0.014	0.007 ± 0.038
4H:VEGFR2	-0.071 ± 0.035	-0.021 ± 0.033	-0.0205 ± 0.0064	0.0035 ± 0.04	0.007 ± 0.014	0.0095 ± 0.018	-0.0165 ± 0.042	0.01 ± 0.018	0.047 ± 0.068	-0.0515 ± 0.047	-0.002 ± 0.014	-0.0135 ± 0.005	0.001 ± 0.0071	-0.008 ± 0.0085	-0.0565 ± 0.039	-0.033 ± 0.0099	0.025 ± 0.0057	-0.0665 ± 0.057	-0.0115 ± 0.069	-0.004 ± 0.059
